Patent US12617779B2, “Self degradation-type CDK9 inhibitor prodrug and liposome encapsulating same” (Sumitomo Pharma Co., Ltd., priority 2021, dated 2026)

Test: Evaluation of conversion rate to active form in buffer solution (Experimental Example 1)
Type: physicochemical
Conditions: for Stability in buffer solution at pH 5 / Conversion to Alvocidib at pH 5 within 3 hours: pH 5, 37° C.; for Stability in buffer solution at pH 5: up to 2 or 3 hours
Experimental: For Examples 1 to 16 and Comparative Examples 1 to 14, the attrition rate of the test compound and the conversion rate of the test compound to Alvocidib in a buffer solution were calculated by the following method.
Examples 1 to 16 and Comparative Examples 1 to 14 were each left in buffer solutions adjusted to pH 5.0, 5.5, 6.0, 6.5, 7.0 and 7.4, respectively, at a concentration of 25 umol/L at 37° C. After 0, 0.5, 1, 2 and 3 hours, the residual rates of the compounds of Examples […] and the production rate of Alvocidib were determined by HPLC.
The buffer solutions used at each pH are as follows. • pH 5.0: 50 mM citrate buffer solution (pH 5.0) • pH 5.5: 50 mM citrate buffer solution (pH 5.5) • pH 6.0: 50 mM phosphate buffer solution (pH 6.0) • pH 6.5: 50 mM phosphate buffer solution (pH 6.5) • pH 7.0: 50 mM phosphate buffer solution (pH 7.0) • pH 7.4: 50 mM phosphate buffer solution (pH 7.4)
The measurement conditions for HPLC are as follows.

[1] = pH5.0, 0 hr, 37° C., 25 umol/L in buffer solution
[2] = pH5.0, 0.5 hr, 37° C., 25 umol/L in buffer solution
[3] = pH5.0, 1 hr, 37° C., 25 umol/L in buffer solution
[4] = pH5.0, 2 hr, 37° C., 25 umol/L in buffer solution
[5] = pH5.0, 3 hr, 37° C., 25 umol/L in buffer solution
[6] = pH5.5, 0 hr, 37° C., 25 umol/L in buffer solution
[7] = pH5.5, 0.5 hr, 37° C., 25 umol/L in buffer solution
[8] = pH5.5, 1 hr, 37° C., 25 umol/L in buffer solution
[9] = pH5.5, 2 hr, 37° C., 25 umol/L in buffer solution
[10] = pH5.5, 3 hr, 37° C., 25 umol/L in buffer solution
[11] = pH6.0, 0 hr, 37° C., 25 umol/L in buffer solution
[12] = pH6.0, 0.5 hr, 37° C., 25 umol/L in buffer solution
[13] = pH6.0, 1 hr, 37° C., 25 umol/L in buffer solution
[14] = pH6.0, 2 hr, 37° C., 25 umol/L in buffer solution
[15] = pH6.0, 3 hr, 37° C., 25 umol/L in buffer solution
[16] = pH6.5, 0 hr, 37° C., 25 umol/L in buffer solution
[17] = pH6.5, 0.5 hr, 37° C., 25 umol/L in buffer solution
[18] = pH6.5, 1 hr, 37° C., 25 umol/L in buffer solution
[19] = pH6.5, 2 hr, 37° C., 25 umol/L in buffer solution
[20] = pH6.5, 3 hr, 37° C., 25 umol/L in buffer solution
[21] = pH7.0, 0 hr, 37° C., 25 umol/L in buffer solution
[22] = pH7.0, 0.5 hr, 37° C., 25 umol/L in buffer solution
[23] = pH7.0, 1 hr, 37° C., 25 umol/L in buffer solution
[24] = pH7.0, 2 hr, 37° C., 25 umol/L in buffer solution
[25] = pH7.0, 3 hr, 37° C., 25 umol/L in buffer solution
[26] = pH7.4, 0 hr, 37° C., 25 umol/L in buffer solution
[27] = pH7.4, 0.5 hr, 37° C., 25 umol/L in buffer solution
[28] = pH7.4, 1 hr, 37° C., 25 umol/L in buffer solution
[29] = pH7.4, 2 hr, 37° C., 25 umol/L in buffer solution
[30] = pH7.4, 3 hr, 37° C., 25 umol/L in buffer solution

CCNC(=O)Oc1cc(O)c2c(=O)cc(-c3ccccc3Cl)oc2c1[C@H]1CCN(C)C[C@H]1O [Comparative Example 1, reference compound]
Production rate of Alvocidib [1]: 8.4% | Residual rate [1]: 91.6% | Stability in buffer solution at pH 5: unstable | Conversion to Alvocidib at pH 5 within 3 hours: mostly converted to Alvocidib | Production rate of Alvocidib [2]: 37.9% | Residual rate [2]: 62.1% | Production rate of Alvocidib [3]: 58.5% | Residual rate [3]: 41.5% | Production rate of Alvocidib [4]: 82.1% | Residual rate [4]: 17.9% | Production rate of Alvocidib [5]: 91.8% | Residual rate [5]: 8.2% | Production rate of Alvocidib [6]: 8.8% | Residual rate [6]: 91.2% | Production rate of Alvocidib [7]: 74.7% | Residual rate [7]: 25.3% | Production rate of Alvocidib [8]: 92.7% | Residual rate [8]: 7.3% | Production rate of Alvocidib [9]: 98.9% | Residual rate [9]: 1.1% | Production rate of Alvocidib [10]: 99.3% | Residual rate [10]: 0.7% | Production rate of Alvocidib [11]: 10.1% | Residual rate [11]: 89.9% | Production rate of Alvocidib [12]: 96.3% | Residual rate [12]: 3.7% | Production rate of Alvocidib [13]: 98.3% | Residual rate [13]: 1.5% | Production rate of Alvocidib [14]: 98.5% | Residual rate [14]: 1.3% | Production rate of Alvocidib [15]: 99.0% | Residual rate [15]: 1.0% | Production rate of Alvocidib [16]: 12.9% | Residual rate [16]: 87.1% | Production rate of Alvocidib [17]: 98.7% | Residual rate [17]: 1.3% | Production rate of Alvocidib [18]: 99.0% | Residual rate [18]: 1.0% | Production rate of Alvocidib [19]: 98.9% | Residual rate [19]: 1.1% | Production rate of Alvocidib [20]: 99.2% | Residual rate [20]: 0.8% | Production rate of Alvocidib [21]: 22.2% | Residual rate [21]: 77.8% | Production rate of Alvocidib [22]: 99.0% | Residual rate [22]: 1.0% | Production rate of Alvocidib [23]: 99.1% | Residual rate [23]: 0.9% | Production rate of Alvocidib [24]: 98.8% | Residual rate [24]: 1.0% | Production rate of Alvocidib [25]: 99.1% | Residual rate [25]: 0.9% | Production rate of Alvocidib [26]: 40.2% | Residual rate [26]: 59.8% | Production rate of Alvocidib [27]: 99.1% | Residual rate [27]: 0.9% | Production rate of Alvocidib [28]: 98.9% | Residual rate [28]: 1.1% | Production rate of Alvocidib [29]: 99.1% | Residual rate [29]: 1.0% | Production rate of Alvocidib [30]: 99.3% | Residual rate [30]: 0.7%

CNC(=O)Oc1cc(O)c2c(=O)cc(-c3ccccc3Cl)oc2c1[C@H]1CCN(C)C[C@H]1O [Comparative Example 2, reference compound]
Production rate of Alvocidib (pH5.0, 0 hr): 2.0% | Residual rate (pH5.0, 0 hr): 96.6% | Stability in buffer solution at pH 5: unstable | Conversion to Alvocidib at pH 5 within 3 hours: mostly converted to Alvocidib | Production rate of Alvocidib (pH5.0, 0.5 hr): 31.8% | Residual rate (pH5.0, 0.5 hr): 66.9% | Production rate of Alvocidib (pH5.0, 1 hr): 53.2% | Residual rate (pH5.0, 1 hr): 45.1% | Production rate of Alvocidib (pH5.0, 2 hr): 79.0% | Residual rate (pH5.0, 2 hr): 19.3% | Production rate of Alvocidib (pH5.0, 3 hr): 90.0% | Residual rate (pH5.0, 3 hr): 8.5% | Production rate of Alvocidib (pH5.5, 0 hr): 2.4% | Residual rate (pH5.5, 0 hr): 96.4% | Production rate of Alvocidib (pH5.5, 0.5 hr): 70.5% | Residual rate (pH5.5, 0.5 hr): 28.0% | Production rate of Alvocidib (pH5.5, 1 hr): 90.8% | Residual rate (pH5.5, 1 hr): 7.5% | Production rate of Alvocidib (pH5.5, 2 hr): 97.6% | Residual rate (pH5.5, 2 hr): 0.6% | Production rate of Alvocidib (pH5.5, 3 hr): 98.6% | Residual rate (pH5.5, 3 hr): 0.0% | Production rate of Alvocidib (pH6.0, 0 hr): 3.3% | Residual rate (pH6.0, 0 hr): 95.1% | Production rate of Alvocidib (pH6.0, 0.5 hr): 95.7% | Residual rate (pH6.0, 0.5 hr): 2.5% | Production rate of Alvocidib (pH6.0, 1 hr): 98.2% | Residual rate (pH6.0, 1 hr): 0.0% | Production rate of Alvocidib (pH6.0, 2 hr): 98.3% | Residual rate (pH6.0, 2 hr): 0.0% | Production rate of Alvocidib (pH6.0, 3 hr): 98.6% | Residual rate (pH6.0, 3 hr): 0.0% | Production rate of Alvocidib (pH6.5, 0 hr): 7.1% | Residual rate (pH6.5, 0 hr): 91.5% | Production rate of Alvocidib (pH6.5, 0.5 hr): 98.3% | Residual rate (pH6.5, 0.5 hr): 0.0% | Production rate of Alvocidib (pH6.5, 1 hr): 98.3% | Residual rate (pH6.5, 1 hr): 0.0% | Production rate of Alvocidib (pH6.5, 2 hr): 98.5% | Residual rate (pH6.5, 2 hr): 0.0% | Production rate of Alvocidib (pH6.5, 3 hr): 98.2% | Residual rate (pH6.5, 3 hr): 0.0% | Production rate of Alvocidib (pH7.0, 0 hr): 17.0% | Residual rate (pH7.0, 0 hr): 81.8% | Production rate of Alvocidib (pH7.0, 0.5 hr): 98.6% | Residual rate (pH7.0, 0.5 hr): 0.0% | Production rate of Alvocidib (pH7.0, 1 hr): 98.3% | Residual rate (pH7.0, 1 hr): 0.0% | Production rate of Alvocidib (pH7.0, 2 hr): 98.3% | Residual rate (pH7.0, 2 hr): 0.0% | Production rate of Alvocidib (pH7.0, 3 hr): 98.3% | Residual rate (pH7.0, 3 hr): 0.0% | Production rate of Alvocidib (pH7.4, 0 hr): 34.5% | Residual rate (pH7.4, 0 hr): 63.9% | Production rate of Alvocidib (pH7.4, 0.5 hr): 98.4% | Residual rate (pH7.4, 0.5 hr): 0.0% | Production rate of Alvocidib (pH7.4, 1 hr): 98.2% | Residual rate (pH7.4, 1 hr): 0.0% | Production rate of Alvocidib (pH7.4, 2 hr): 98.5% | Residual rate (pH7.4, 2 hr): 0.0% | Production rate of Alvocidib (pH7.4, 3 hr): 98.5% | Residual rate (pH7.4, 3 hr): 0.0%
